Reference: ChEMBL document CHEMBL5550093, “Design, synthesis and antitumor activity of 2-substituted quinazoline-4-amine derivatives” (Bioorg Med Chem, 2024)
Activity calls are given as the source filed them. The calls are words filed in the database; no cut-off is given here.

Assays:
[1] = Antiproliferative activity against HEK293T cells at 5 uM incubated for 48 hrs by MTT assay relative to control; assay type: toxicity, cell-based, HEK-293T; settings: human
A549 [2] = experiment: Antiproliferative activity against human A549 cells at 5 uM incubated for 48 hrs by MTT assay relative to control; assay type: functional
K562 [3] = experiment: Antiproliferative activity against human K562 cells at 5 uM incubated for 48 hrs by MTT assay relative to control; assay type: functional
PC-3 [4] = experiment: Antiproliferative activity against human PC-3 cells at 5 uM incubated for 48 hrs by MTT assay relative to control; assay type: functional
HeLa [5] = experiment: Antiproliferative activity against human HeLa cells at 5 uM incubated for 48 hrs by MTT assay relative to control; assay type: functional
HeLa [6] = experiment: Antiproliferative activity against human HeLa cells incubated for 48 hrs by MTT assay; assay type: functional, cell-based
[7] = Antiproliferative activity against HEK293T cells incubated for 48 hrs by MTT assay; assay type: toxicity, cell-based, HEK-293T; settings: human
K562 [8] = experiment: Antiproliferative activity against human K562 cells incubated for 48 hrs by MTT assay; assay type: functional, cell-based; settings: K562, 48 h
PC-3 [9] = experiment: Antiproliferative activity against human PC-3 cells incubated for 48 hrs by MTT assay; assay type: functional, cell-based; settings: for IC50: PC-3, 48 h; for IC20: PC-3, time 48 hrs
A549 [10] = experiment: Antiproliferative activity against human A549 cells incubated for 48 hrs by MTT assay; assay type: functional, cell-based; settings: A549, 48 h
PC-3 [11] = experiment: Antiproliferative activity against human PC-3 overexpressing WRN cells incubated for 48 hrs by MTT assay; assay type: functional
PC-3 [12] = experiment: Inhibition of cell survival in human PC-3 cells at 1000 nM pretreated for 48 hrs followed by fresh media replacement without compound measured after 2 weeks by colony formation assay; assay type: functional, cell-based

Row | SMILES | inhibition at 48 h, 5 µM [1] [%] | inhibition at 5 µM (A549 [2]) [%] | inhibition at 5 µM (K562 [3]) [%] | inhibition at 5 µM (PC-3 [4]) [%] | inhibition at 5 µM (HeLa [5]) [%] | IC50 (HeLa [6]) [µM] | IC50 at 48 h [7] [µM] | IC50 (K562 [8]) [µM] | IC50 (PC-3 [9]) [µM] | IC50 (A549 [10]) [µM] | IC20 (PC-3 [11]) [µM] | IC20 (PC-3 [9]) [µM] | inhibition (PC-3 [12])
1 | COc1cccc(C(=O)c2nc(Nc3ccc(OC)c(OC)c3)c3ccccc3n2)c1 | 5.5 | 47.4 | 8.7 | -10.2 | 41.1 |  |  |  |  |  |  |  | 
2 | COC(=O)c1ccc(N(C)c2nc(C(=O)c3ccc(F)cc3)nc3ccccc23)cc1OC | 38 | 21.9 | 40.2 | 43.6 | 31.2 |  |  |  |  |  |  |  | 
3 | COc1cccc(C(=O)c2nc(N(C)c3ccc(OC)c(OC)c3)c3ccccc3n2)c1 | 46.3 | 45.4 | 38.8 | 25.3 | 47.1 |  |  |  |  |  |  |  | 
4 | COC(=O)c1ccc(Nc2nc(C(=O)c3ccc(F)cc3)nc3ccccc23)cc1 | 18.9 | 35.7 | 6.8 | 19 | 37.8 |  |  |  |  |  |  |  | 
5 | COc1ccc(N(C)c2nc(C(=O)c3ccccc3)nc3ccc(F)cc23)cc1 | 39.3 | 25 | 24.1 | 40.9 | 37.8 |  |  |  |  |  |  |  | 
6 | COc1cc(N2CCNCC2)ccc1N(C)c1nc(C(=O)c2ccc(F)cc2)nc2ccccc12 | 3.2 | 11.9 | 3.3 | 17.3 | 5.2 |  |  |  |  |  |  |  | 
7 | O=C(c1ccc(F)cc1)c1nc(Nc2ccc(N3CCNCC3)c(F)c2)c2ccccc2n1 | 9.5 | 4.1 | -10.7 | -9.6 | 11.3 |  |  |  |  |  |  |  | 
8 | COc1ccc(Nc2nc(C(=O)c3ccccc3)nc3ccc(F)cc23)cc1 | 2.4 | 2.9 | 0.5 | 3.4 | 2 |  |  |  |  |  |  |  | 
9 | CC(C)(CN1C(=O)C(Cl)=C(Cl)C1=O)CN1C(=O)C(Cl)=C(Cl)C1=O | 71 | 7.3 | 35 | 51.1 | 69.1 | 2.7 | 3.1 | 1.8 | 6.8 | 3.4 |  |  | 
10 | O=C(c1ccccc1)c1nc(Nc2ccc(OC(F)(F)F)cc2)c2cc(F)ccc2n1 | 23 | 42.2 | 19.3 | 47.6 | 27.8 |  |  |  |  |  |  |  | 
11 | COc1ccc(N(C)c2nc(C(F)(F)c3cccc(OC)c3)nc3ccccc23)cc1 | 56.6 | 52.7 | 61.3 | 57.6 | 47.8 | > 10 | 2.1 | 0.3 | 5.6 | > 10 | 0.144 | 0.25 | 
12 | CC(C)[C@H](N)c1nc(Nc2ccc(OC(F)(F)F)cc2)c2ccccc2n1 | 4.4 | 11.4 | 7.2 | 13.3 | 2.6 |  |  |  |  |  |  |  | 
13 | COc1ccc(N(C)c2nc([C@@H](N)C(C)C)nc3ccccc23)cc1 | 59.2 | 72.6 | 85.2 | 51.9 | 33.6 | > 10 | 7.9 | 8 | 8 | > 10 | 1.11 | 7.61 | Active
14 | COc1cc(N(C)c2nc(C(=O)c3ccc(F)cc3)nc3ccccc23)ccc1C(=O)O | 5.3 | 5.1 | 6.4 | -8.9 | 12.3 |  |  |  |  |  |  |  | 
15 | COc1ccc(Nc2nc([C@@H](N)C(C)C)nc3ccccc23)cc1 | 8.4 | 3.4 | 0.8 | -4.8 | 9.3 |  |  |  |  |  |  |  | 
16 | COC(=O)c1ccc(Nc2nc(C(=O)c3ccccc3)nc3ccc(F)cc23)cc1 | 11.1 | 17.7 | 19.5 | 29.3 | 0.8 |  |  |  |  |  |  |  | 
17 | CN(c1ccc(OC(F)(F)F)cc1)c1nc(C(=O)c2ccccc2)nc2ccc(F)cc12 | 1.3 | 18.4 | -2.2 | 10.4 | -3.1 |  |  |  |  |  |  |  | 

Row | SMILES | inhibition at 48 h, 5 µM [1] [%] | inhibition at 5 µM (A549 [2]) [%] | inhibition at 5 µM (K562 [3]) [%] | inhibition at 5 µM (PC-3 [4]) [%] | inhibition at 5 µM (HeLa [5]) [%] | IC50 (HeLa [6]) [µM] | IC50 at 48 h [7] [µM] | IC50 (K562 [8]) [µM] | IC50 (PC-3 [9]) [µM] | IC50 (A549 [10]) [µM] | IC20 (PC-3 [11]) [µM] | IC20 (PC-3 [9]) [µM] | inhibition (PC-3 [12])
18 | O=C(c1ccccc1)c1nc(Nc2ccc(N3CCOCC3)cc2)c2cc(F)ccc2n1 | 29.7 | 39.3 | 28.1 | 3.1 | 31.1 |  |  |  |  |  |  |  | 
19 | CN(c1ccc(N2CCOCC2)cc1)c1nc(C(=O)c2ccccc2)nc2ccc(F)cc12 | 34.5 | 3.3 | 35.4 | 35.4 | 40.3 |  |  |  |  |  |  |  | 
20 | Cc1ccc(Nc2nc(C(=O)c3ccc(F)cc3)nc3ccccc23)c(C(=O)O)c1 | 20.6 | 29.9 | 6.5 | -4.2 | 42.7 |  |  |  |  |  |  |  | 
21 | CCOC(=O)c1c(C)nc(-c2ccc(N(C)c3nc(C(=O)c4ccccc4)nc4ccc(F)cc34)cc2)n1C | 0.3 | 1.8 | 30.1 | 1 | 4 |  |  |  |  |  |  |  | 
22 | CC(C)[C@H](N)c1nc(N(C)c2ccc(OC(F)(F)F)cc2)c2ccccc2n1 | 25.5 | 56.2 | 81.4 | 7 | 11.3 |  |  |  |  |  |  |  | 
23 | C=CC(=O)Nc1cccc(Nc2nc(C(=O)c3ccccc3)nc3ccc(F)cc23)c1 | 4.8 | 7.9 | 8.9 | 9.6 | 7 |  |  |  |  |  |  |  | 
24 | COc1cc(N2CCNCC2)ccc1Nc1nc(C(=O)c2ccc(F)cc2)nc2ccccc12 | 5.8 | -0.5 | -6.6 | 9 | 1.7 |  |  |  |  |  |  |  | 
25 | COc1cccc2c1C(=O)c1c(O)c3c(c(O)c1C2=O)C[C@@](O)(C(=O)CO)C[C@@H]3O[C@H]1C[C@H](N)[C@H](O)[C@H](C)O1 [DOXORUBICIN] | 81.1 | 30.1 | 61 | 80.1 | 71.7 |  | 2.4 | 2.3 |  | 4.4 |  |  | 
26 | COc1ccc(Nc2nc(C(=O)c3cccc(OC)c3)nc3ccccc23)cc1 | 4.7 | 44.3 | 25.2 | 46.5 | 40.1 |  |  |  |  |  |  |  | 
27 | COc1ccc(N(C)c2nc(C(=O)c3cccc(OC)c3)nc3ccccc23)cc1 | 59.6 | 52 | 61.5 | 58.1 | 51 | > 10 | 6.4 | 9.3 | 6.6 | > 10 | 1.07 | 0.975 | 
28 | CCOC(=O)c1[nH]c(-c2ccc(Nc3nc(C(=O)c4ccccc4)nc4ccc(F)cc34)cc2)nc1C | 58.3 | 40.6 | 55.4 | 44.5 | 34.9 | > 10 | 6.2 | 8 | 5.7 | > 10 | 6.6 | 7.51 | 
29 | CC(C)[C@H](N)c1nc(Nc2ccc(N3CCOCC3)cc2)c2ccccc2n1 | 1.2 | -0.7 | 8.2 | 2.1 | 6.5 |  |  |  |  |  |  |  | 
30 | COC(=O)c1ccc(N(C)c2nc(C(=O)c3ccccc3)nc3ccc(F)cc23)cc1 | 37.6 | 46.1 | 25.9 | 39 | 16 |  |  |  |  |  |  |  | 
31 | COC(=O)c1ccc(Nc2nc(C(=O)c3ccc(F)cc3)nc3ccccc23)cc1OC | 4.6 | 8.5 | 8.5 | -5.7 | 8.2 |  |  |  |  |  |  |  | 
32 | COc1cccc(C(F)(F)c2nc(N(C)c3ccc(OC)c(OC)c3)c3ccccc3n2)c1 | 63.6 | 53.2 | 65.5 | 62.7 | 51.2 | > 10 | 1.1 | 0.05 | > 10 | > 10 | 0.123 | 0.981 | Active
33 | COC(=O)c1ccc(Nc2nc(C(=O)c3cccc(OC)c3)nc3ccccc23)cc1OC | 14.5 | 40.1 | 9.5 | 48.3 | 37.7 |  |  |  |  |  |  |  | 
